Reference: patent US20230310388A1, “Methods and Compositions for Treating Fungal Infections” (Neoculi Pty Ltd, priority 2020, published 2023)
“And” between values parts separate entries of the source, which are not always exact repeats. Identical values can stand only once.

Legend:
Type in all cases: cell-based
[1] = tested on: Candida albicans; assay: CLSI broth microdilution MIC (Example 4)
Procedure: (§1) Antifungal minimum inhibitory concentration (MIC) testing was undertaken as recommended by the CLSI. Briefly, antifungal susceptibility tests were performed for amphotericin B, robenidine (NCL812) and robenidine (NCL) analogs (NCL004, NCL020, NCL023, NCL024, NCL062, NCL094, NCL097, NCL110, NCL113, NCL114, NCL115, NCL135, NCL139, NCL180, NCL181, NCL195, NCL219, NCL220, NCL228, NCL247, NCL250, NCL259, NCL260, NCL263, NCL265, NCL269, NCL274) by standard broth microdilution method (CLSI) in RPMI 1640. Various concentrations (ranging from high to low) of the selected compounds were prepared in RPMI 1640 medium by double dilution in 96-well microtitre plates. Each well contained an inoculum of approximately 2×10^3 cells/mL. The wells without addition of drugs served as negative (no inoculum) and positive (inoculum only) growth controls. Microtitre plates were incubated at 35° C. for 24-48 hours. […] Antifungal MICs were determined for each isolate in duplicate; if the values obtained were different, the MIC test was repeated a third time.

[2] = tested on: Cryptococcus neoformans; assay: CLSI broth microdilution MIC (Example 4)
Procedure: as §1

[3] = tested on: Candida albicans ATCC14053; assay: Broth micro-dilution screen at 16 μg/mL and MIC (Example 9); conditions: for Screen at 16 μg/mL: single concentration 16 μg/mL, Growth or No growth of C. albicans ATCC14053; for MIC: C. albicans ATCC14053, test range 0.25-64 μg/mL, duplicate
Procedure: The antifungal activity of 201 NCL analogs against Candida albicans ATCC14053 in vitro was investigated. A broth micro-dilution method was used, according to CLSI guidelines as described. NCL analogs were dissolved in DMSO and originally screened at a single concentration of 16 μg/mL.

MIC at 24-48 hours ([1]; Candida albicans ATCC 90028) [µg/mL]	MIC at 24-48 hours ([1]; Candida albicans SA3) [µg/mL]	MIC at 24-48 hours ([2]; Cryptococcus neoformans SA1) [µg/mL]	MIC at 24-48 hours ([2]; Cryptococcus neoformans SA2) [µg/mL]	MIC [3]	Structure (SMILES)	Screen at 16 μg/mL [3]
>32	>32	>32	>32	–	Clc1ccc(CNCCNCc2ccc(Cl)cc2)cc1 [NCL260]	Growth
>32	>32	>32	>32	–	Cl.N=C(NN=CC1CCCCC1)NN=CC1CCCCC1 [NCL094]	Growth
>32	>32	>32	>32	<0.5 µg/mL	Cl.N=C(NN=Cc1cnc2ccccc2c1)NN=Cc1cnc2ccccc2c1 [NCL139]	No growth
>32	>32	>32	>32	–	Clc1ccc(/C=N/CC/N=C/c2ccc(Cl)cc2)cc1 [NCL250]	Growth
>32	>32	>32	>32	–	Cl.N=C(NN=Cc1ccccc1Cl)NN=Cc1ccccc1Cl [NCL020]	Growth
>32	>32	>32	>32	–	Cl.N=C(N)N/N=C/c1ccc(C(F)(F)F)cc1F [NCL263]	Growth
>32	>32	>32	>32	0.5 µg/mL and 1 µg/mL	CCCCCCNC(=O)N(N=Cc1ccc(Cl)cc1)C(N)=NN=Cc1ccc(Cl)cc1 [NCL228]	No growth
>32	>32	>32	>32	2 µg/mL and 4 µg/mL	Nc1nc(N/N=C/c2cc(O)c(O)c(O)c2)cc(N/N=C/c2cc(O)c(O)c(O)c2)n1 [NCL247]	No growth
>32	>32	>32	>32	–	COc1cc(Br)c(C=NNC(=N)NN=Cc2cc(OC)c(OC)cc2Br)cc1OC.Cl [NCL135]	Growth
>32	>32	>32	>32	–	Cl.N=C(NN=Cc1cc(Cl)cc(Cl)c1)NN=Cc1cc(Cl)cc(Cl)c1 [NCL114]	Growth
>32	>32	>32	>32	–	OCC(=NNc1cc(NN=C(CO)c2ccc(Cl)cc2)ncn1)c1ccc(Cl)cc1 [NCL180]	Growth
>32	>32	>32	>32	–	Clc1ccc(C=NNc2cc(NN=Cc3ccc(Cl)cc3)ncn2)cc1 [NCL181]	Growth
–	–	–	–	–	Cl.N=C(NN=Cc1ccccc1F)NN=Cc1ccccc1F [NCL022]	Growth
–	–	–	–	–	Cl.N=C(NN=Cc1cc(F)ccc1F)NN=Cc1cc(F)ccc1F [NCL118]	Growth
–	–	–	–	–	N=C(N/N=C/c1ccc(-c2ccccc2)cc1)N/N=C/c1ccc(-c2ccccc2)cc1 [NCL112]	Growth
–	–	–	–	–	CC(=NNc1cc(NN=C(C)c2ccc(Cl)cc2)nc(N)n1)c1ccc(Cl)cc1 [NCL204]	Growth
–	–	–	–	4 µg/mL and 8 µg/mL	Cc1ccccc1/C=N/NC(=N)N/N=C/c1ccccc1C.Cl [NCL039]	No growth
–	–	–	–	–	CC(=O)Nc1ccc(C=NNc2cc(NN=Cc3ccc(NC(C)=O)cc3)nc(N)n2)cc1 [NCL223]	Growth
–	–	–	–	–	Cc1ccc(/C=N/NC(=N)N)cc1.Cl [NCL044]	Growth

MIC at 24-48 hours ([1]; Candida albicans ATCC 90028) [µg/mL]	MIC at 24-48 hours ([1]; Candida albicans SA3) [µg/mL]	MIC at 24-48 hours ([2]; Cryptococcus neoformans SA1) [µg/mL]	MIC at 24-48 hours ([2]; Cryptococcus neoformans SA2) [µg/mL]	MIC [3]	Structure (SMILES)	Screen at 16 μg/mL [3]
–	–	–	–	–	Cl.N=C(NN=Cc1ccoc1)NN=Cc1ccoc1 [NCL095]	Growth
–	–	–	–	–	Nc1nc(N/N=C/c2ccc(F)c(F)c2)cc(N/N=C/c2ccc(F)c(F)c2)n1 [NCL222]	Growth
–	–	–	–	–	Clc1ccc(C=NCCCN=Cc2ccc(Cl)cc2)cc1 [NCL252]	Growth
>32	>32	>32	>32	–	Cl.N=C(NN=Cc1ccc([N+](=O)[O-])cc1)NN=Cc1ccc([N+](=O)[O-])cc1 [NCL110]	Growth
–	–	–	–	–	COc1ccc(C=NNC(=N)NN=Cc2ccc(OC)c(O)c2)cc1O.Cl [NCL125]	Growth
–	–	–	–	–	Cl.N=C(N)NN=Cc1nc2ccccc2s1 [NCL279]	Growth
–	–	–	–	–	Cl.N=C(NN=Cc1ccc(Cl)cc1Cl)NN=Cc1ccc(Cl)cc1Cl [NCL127]	Growth
–	–	–	–	–	Cl.N=C(N)NN=C(CNN)c1ccc(Cl)cc1 [NCL190]	Growth
–	–	–	–	–	Cc1cccc(C=NNC(=N)N)c1.Cl [NCL046]	Growth
–	–	–	–	–	Cl.N=C(N)NN=Cc1cccc(F)c1 [NCL017]	Growth
–	–	–	–	–	Nc1nc(NN=Cc2ccc(Br)cc2)nc(NN=Cc2ccc(Br)cc2)n1 [NCL212]	Growth
–	–	–	–	0.5 µg/mL and 1 µg/mL	Cl.N=C(NN=Cc1ccc(F)cc1)NN=Cc1ccc(F)cc1 [NCL021]	No growth
–	–	–	–	–	Cl.N=C(NN=C1C(=O)Nc2ccccc21)NN=C1C(=O)Nc2ccccc21 [NCL163]	Growth
–	–	–	–	–	O=C(NN=Cc1ccccc1C(F)(F)F)NN=Cc1ccccc1C(F)(F)F [NCL013]	Growth
–	–	–	–	–	Cl.N=C(NN=Cc1c(O)ccc2ccccc12)NN=Cc1c(O)ccc2ccccc12 [NCL124]	Growth
–	–	–	–	–	Cl.N=C(N)NN=Cc1cccc(Cl)c1 [NCL052]	Growth
–	–	–	–	–	COc1cc(C=NNC(=N)NN=Cc2ccc(O)c(OC)c2)ccc1O.Cl [NCL117]	Growth
–	–	–	–	–	Cl.N=C(NN=Cc1c(Cl)cccc1Cl)NN=Cc1c(Cl)cccc1Cl [NCL137]	Growth
–	–	–	–	–	CN(C)c1ccc(/C=N/NC(=N)N)cc1 [NCL253]	Growth

Structure (SMILES)	MIC at 24-48 hours ([1]; Candida albicans ATCC 90028) [µg/mL]	MIC at 24-48 hours ([1]; Candida albicans SA3) [µg/mL]	MIC at 24-48 hours ([2]; Cryptococcus neoformans SA1) [µg/mL]	MIC at 24-48 hours ([2]; Cryptococcus neoformans SA2) [µg/mL]	MIC [3]	Screen at 16 μg/mL [3]
CC(=NNC(=N)N)c1c[nH]c2ccccc12 [NCL269]	>32	>32	>32	>32	–	Growth
